{"source": "patent US5807891A", "about": "“Antiviral ethers of aspartate protease substrate isosteres” (priority 1994, dated 1998)", "key": {"[1]": {"tested_on": "H9/HIV-1/IIIB cells cocultured with CEM-SS cells", "test": "Antiviral activity in coculture of CEM-SS cells and permanently infected H9/HIV-1/IIIB cells, RT activity", "format": "cell-based", "settings": "Human immunodeficiency virus 1, IIIB, 96 h; for inhibition at 0.0125 µM: 12.5 nM", "experimental": "The final concentration of free DMSO is less than 0.5%. When using cell lines: The cell lines are maintained in complete culture medium of the following composition: RPMI 1640 (GIBCO, Paisley, Scotland), supplemented with 10% foetal calf serum (SEROMED, Berlin, Germany), 10 mM 4-(2-hydroxyethyl)piperazine-1-ethanesulfonic acid(=HEPES) and 2 mM L-glutamine (AMIMED, Muttenz, Switzerland). […] The test compounds are tested as individual substances or as a combination of two active substances in defined concentration ratios. H9/HIV-1/IIIB cells are mixed, after having been washed twice and having been suspended in fresh medium, with CEM-SS cells in a ratio of 1:50. 100 μl of the cell mixture are dispensed into each well of 96-well tissue culture plates with the wells in each case containing 400 H9/HIV-1/IIIB cells and 2×10^4 CEM-SS cells. Immediately after the cells have been dispensed, two-fold serial dilutions of the test compounds are added (100 μl per well) in each case in sets of six. Instead of this, 100 μl of medium are added to each well for the virus control (VC); CEM-SS cells on their own (without H9/HIV-1/IIIB cells) are used as the control (CC). The final volume is 200 μl/well. […] The virus production is determined as the virus-associated activity of the reverse transcriptase (RT) in accordance with the following method, which has already been described above (see […]., et al., Antimicrob. Agent Chemother. 37(10), 2087-92 (1993)): When carrying out the measurement, 30 μl of reverse transcriptase cocktail are added to each well. The reverse transcriptase cocktail consists of 50 mM Tris (α,α,α-tris(hydroxymethyl)methylamine, Ultra pur, Merck, Germany), pH 7.8; 75 mM KCl, 2 mM dithiothreitol, 5 mM MgCl2; 0.1% Nonidet P-40 (detergent; Sigma, Switzerland), 0.8 mM EDTA, 10 μg/ml poly-A (Pharmacia, Uppsala, Sweden) and 0.16 μg/ml oligo(T)(=pdT(12-18), Pharmacia, Uppsala, Sweden) as template primer. The mixture is filtered through a 0.45 μm Acrodisc filter (Gelman Sciences Inc., Ann Arbor, U.S.A.) and stored at -20° C. […] After mixing, the plate is incubated at 37° C. for 1.5 h. 5 μl of the reaction mixture are transferred to DE81 paper (Whatman, one filter per well). The dried filters are washed three times for 5 min with 300 mM NaCl/25 mM trisodium citrate and then once with ethanol, and air-dried once again. The radioactivity on the filters is measured in a Packard Matrix 96-well counter (Packard, Zurich, Switzerland). The antiretroviral effect is given as the % reduction in RT activity as compared with the VC values. The activities of the individual compounds, and the combinations, mentioned in the title, in the coculture of the CEM-SS cell line and the permanently infected cell line H9/HIV-1/IIIB are determined using the method described above in association with the description of the pharmacological properties. The measurement result is expressed as % reduction of the reverse transcriptase (RT) activity. The results are presented in the following table; measurement results which confirm the occurrence of synergism are emphasized by underlining: […]"}, "[2]": {"tested_on": "HIV-1/LAV in human peripheral mononuclear blood cells", "test": "Antiviral activity in peripheral mononuclear blood cells infected with HIV-1, cumulative RT activity", "format": "cell-based", "text": "For the experiments using peripheral mononuclear blood cells, the cells are isolated from the blood of healthy HIV-seronegative human subjects using a combination of leukaphoresis and counter-current centrifugal elutriation in accordance with known methods (see Alteri, E., et al., Antimicrob. Agent Chemother. 37(10), 2087-92 (1993)).\nThe lymphocytotrophic isolate HIV-1/LAV (LAV.04/A.301), for example, is used as the virus (see Science 220, 868-71 (1983)).\nThe final concentration of free DMSO is less than 0.5%.\nWhen peripheral mononuclear blood cells are used: The mixture of mononuclear cells (lymphocytes and monocytes), which is obtained as described above, is cultured, in the presence of 0.25 μg/ml phytohaemagglutinin (Wellcome Diagnostics, Temple Hill, Dartford, England), for two days in RPMI-1640 (GIBCO, Paisley, Scotland), 50 mU/ml penicillin, 50 μg/ml streptomycin (ANIMED, Muttenz, Switzerland), 2 mM L-glutamine (AMIMED, Muttenz, Switzerland) and 10 mM HEPES buffer (GIBCO, Paisley, Scotland). Successful activation is monitored by measuring the increase in cell size (scattergram, FCM analysis). The cells are resuspended in complete medium containing 10% human AB serum (Sigma, St. Louis, U.S.A.) and infected with HIV-1 for 6 h. After the viral adsorption, the cells are washed and resuspended in complete medium which is supplemented with 100 U/ml human recombinant IL-2 (Genzyme, Cambridge, U.S.A.). 9×10^4 cells are plated out per well (0.3 ml) in 96-well plates having U-shaped well bottoms. The antiviral compounds are added either alone or in combination to sets of five cell cultures in each case (pentaplicates) directly following the infection. Two thirds of the culture medium with or without antiviral compound(s) are replaced every three days. The test is concluded on day 13 after infection. The progress of the viral infection is measured by determining the RT activity as described above for the cell lines.\nThe activities of the individual compounds, and the combinations, specified in the title, in the peripheral mononuclear blood cell culture are determined using the method described above in association with the description of the pharmacological properties. The measurement result is expressed as the cumulative activity of the reverse transcriptase (RT), in cpm/1.25 μl (number of measured ^32 P disintegrations per 1.25 μl of test mixture and minute) on day 17 after the infection. […] The test compound(s) is/are re-added in associated with each change of the medium (on days 0, 3, 6, 10 and 13): […]"}, "HIV protease": {"tested_on": "HIV protease", "settings": "cited from earlier work"}, "viral replication": {"tested_on": "viral replication", "settings": "cited from earlier work"}, "[3]": {"tested_on": "CD4 lymphocytes in the blood", "settings": "AIDS patients; cited from earlier work"}, "[4]": {"settings": "in vivo, po; cited from earlier work"}, "[5]": {"settings": "in vivo; cited from earlier work"}}, "note": "Read-outs that look alike come from different tables or passages of the source."}
{"smiles": "COCCNC(=O)[C@@H](NC(=O)[C@H](Cc1ccc(OC)c(OC)c1OC)C[C@H](O)[C@H](Cc1ccccc1)NC(=O)OC(C)(C)C)C(C)C", "note": "[Example 47, 5(S)-(Boc-Amino)-4(S)-hydroxy-6-phenyl-2(R)-[(2,3,4-trimethoxyphenyl)methyl]hexanoyl-(L)-Val-N-(2-methoxyethyl)amide]", "values": [{"measurement": "inhibition at 0.003125 µM", "setting": "[1]; 3.125 nM, coculture, day 4, read-out: % Inhibition of the RT activity by Example 47 title compound alone", "result": 2.7, "unit": "%"}, {"measurement": "inhibition at 0.00625 µM", "setting": "[1]; 6.25 nM, coculture, day 4, read-out: % Inhibition of the RT activity by Example 47 title compound alone", "result": 1.3, "unit": "%"}, {"measurement": "inhibition at 0.0125 µM", "setting": "[1]; coculture, day 4, read-out: % Inhibition of the RT activity by Example 47 title compound alone", "result": 52, "unit": "%"}, {"measurement": "Cumulative RT activity on day 17 after the infection", "setting": "[2]; Example 47 concentration 7.5 alone (unit not given)", "result": 7909, "unit": "cpm/μl"}, {"measurement": "Cumulative RT activity on day 17 after the infection", "setting": "[2]; Example 47 concentration 15 alone (unit not given)", "result": 9132, "unit": "cpm/μl"}, {"measurement": "Cumulative RT activity on day 17 after the infection", "setting": "[2]; Example 47 concentration 30 alone (unit not given)", "result": 8457, "unit": "cpm/μl"}, {"measurement": "Cumulative RT activity on day 17 after the infection", "setting": "[2]; Example 47 concentration 60 alone (unit not given)", "result": 1823, "unit": "cpm/μl"}, {"measurement": "Cumulative RT activity on day 17 after the infection", "setting": "[2]; Example 47 concentration 120 alone (unit not given)", "result": 49, "unit": "cpm/μl"}]}
{"smiles": "CC(C)(C)NC(=O)[C@@H]1CN(Cc2cccnc2)CCN1C[C@@H](O)C[C@@H](Cc1ccccc1)C(=O)N[C@H]1c2ccccc2C[C@H]1O", "note": "[Indinavir]", "values": [{"measurement": "inhibition at 0.0125 µM", "setting": "[1]; coculture, day 4, read-out: % Inhibition of the RT activity by Indinavir alone", "result": 3.2, "unit": "%"}, {"measurement": "inhibition at 0.025 µM", "setting": "[1]; 25 nM, coculture, day 4, read-out: % Inhibition of the RT activity by Indinavir alone", "result": 59.7, "unit": "%"}]}
{"smiles": "CC(C)(C)NC(=O)[C@@H]1C[C@@H]2CCCC[C@@H]2CN1C[C@@H](O)[C@H](Cc1ccccc1)NC(=O)[C@H](CC(N)=O)NC(=O)c1ccc2ccccc2n1", "note": "[Saquinavir, N-tert-butyldecahydro-2-[2(R)-hydroxy-4-phenyl-3(S)-[[N-2-quinolylcarbonyl-L-asparaginyl]amino]butyl]-(4aS,8aS)-isoquinoline-3(S)-carboxamide]", "values": [{"measurement": "inhibition at 0.00626 µM", "setting": "[1]; read-out: % Inhibition of the RT activity by Saquinavir alone", "result": 93.8, "unit": "%"}, {"measurement": "inhibition at 0.00078 µM", "setting": "[1]; read-out: % Inhibition of the RT activity by Saquinavir alone, 0.78 nM, coculture, day 4", "result": 6.6, "unit": "%"}, {"measurement": "inhibition at 0.00156 µM", "setting": "[1]; read-out: % Inhibition of the RT activity by Saquinavir alone, 1.56 nM, coculture, day 4", "result": 14.7, "unit": "%"}, {"measurement": "inhibition at 0.003125 µM", "setting": "[1]; read-out: % Inhibition of the RT activity by Saquinavir alone, 3.125 nM, coculture, day 4", "result": 39.3, "unit": "%"}, {"measurement": "effect on HIV protease in vitro", "setting": "HIV protease", "result": "inhibitory effect"}, {"measurement": "viral replication in cell experiments", "setting": "viral replication", "result": "suppressed viral replication"}, {"measurement": "surrogate marker (titre of the CD4 lymphocytes in the blood)", "setting": "[3]", "result": "first positive effects"}, {"measurement": "blood levels", "setting": "[4]", "result": "useful blood levels were achieved"}, {"measurement": "blood levels", "setting": "[5]", "result": "useful blood levels were also achieved"}]}
